Reference: patent publication US20080021026A1, “BENZOTHIOPHENE INHIBITORS OF RHO KINASE” (priority 2006, published 2008)

molecular target: T1, recombinant N-terminal GST-tagged human Rho kinase 2 (ROCK2, amino acids 1-552) (Homo sapiens, UniProt O75116); assay: In vitro Rho kinase assay (luciferase-based ATP consumption), ROCK2; format: biochemical; details: recombinant GST-tagged human ROCK2, luciferase-based ATP consumption; read-out: ROCK2 IC50
T1 construct: ROCK2, amino acids 1-552; purchased Invitrogen Inc. PV3759
T1 sequence (O75116 1-552): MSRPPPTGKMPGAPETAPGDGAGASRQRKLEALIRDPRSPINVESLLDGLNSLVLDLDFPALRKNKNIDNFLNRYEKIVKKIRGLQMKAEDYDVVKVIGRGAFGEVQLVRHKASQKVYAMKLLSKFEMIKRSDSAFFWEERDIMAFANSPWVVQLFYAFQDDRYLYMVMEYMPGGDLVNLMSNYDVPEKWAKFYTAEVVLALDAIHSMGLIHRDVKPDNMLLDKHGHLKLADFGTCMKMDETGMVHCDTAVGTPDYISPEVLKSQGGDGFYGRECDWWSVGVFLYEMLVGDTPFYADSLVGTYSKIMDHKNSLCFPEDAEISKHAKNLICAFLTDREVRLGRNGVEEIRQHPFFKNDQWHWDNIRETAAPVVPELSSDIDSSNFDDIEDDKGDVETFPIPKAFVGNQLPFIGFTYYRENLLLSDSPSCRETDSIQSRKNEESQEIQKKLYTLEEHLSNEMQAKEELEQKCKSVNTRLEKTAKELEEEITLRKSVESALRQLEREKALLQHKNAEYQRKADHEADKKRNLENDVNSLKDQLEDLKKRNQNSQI
Description: In Vitro Rho Kinase Assay
Rho kinase biochemical assays described below depend on firefly luciferase-based, indirect measurement of total ATP consumption by the kinase following incubation with substrate and ATP. 25 μl of Rho kinase assay buffer (20 mM Tris-HCL [pH 7.5], 1 mM MgCl2, 0.4 mM CaCl2, 0.15 mM EGTA, 0.1 mg/ml bovine serum albumin) containing 0.82 μg/ml of recombinant N-terminal GST-tagged human Rho kinase 1 (ROCK1, amino acids 1-535, Invitrogen Inc., cat. #PV-3691) or recombinant N-terminal GST-tagged human Rho kinase 2 (ROCK2, amino acids 1-552, Invitrogen Inc., cat #PV3759), 100 μg/ml S6 peptide substrate (related to amino acids 218-249 of the human 40S ribosomal protein S6, and suitable for ROCK1 or ROCK2, e.g. Upstate/Millipore Inc., cat #12-420), and 3 µM ATP are dispensed to wells of a 384 multi-well opaque plate. The plate is centrifuged for 30 seconds at approximately 200×g. 240 nl of test compound in DMSO is dispensed to each well by passive pin transfer. The lag phase of this in vitro kinase reaction permits addition of compounds soon after the reaction initiates. The reaction is allowed to incubate at 30° C. for 2 hours. The assay plates are sealed and maintained in a humidified environment. After 2 hours, 25 μl of easylite protein kinase assay reagent (Perkin-Elmer, Inc.) is dispensed. After an additional 10 minute incubation at room temperature (about 22° C.), luminescence activity is measured on a Molecular Devices Analyst multi-mode plate reader or other suitable plate reader. Kinase inhibition results in less ATP consumption, and therefore increased luminescence signal. Negative control activity is measured with DMSO lacking any test compound. The positive control is 2-methyl-1-(4-methylisoquinolin-5-ylsulfonyl)perhydro-1,4-diazepine hydrochloride (aka H-1152P, HCl salt). Efficacy is measured as a percentage of positive control activity. […] In some cases, kinase reactions and compound testing are performed in 1536 multi-well plates under similar conditions, with assay volumes appropriately scaled. The designation NT means the cited example was not tested.

| SMILES | IC50 |
| --- | --- |
| COc1ccccc1CNC(=O)c1ccc2sc(-c3ccnc(N)n3)c(C)c2c1 [Example 402, COc1ccccc1CNC(═O)c2ccc3sc(c(C)c3c2)-c4ccnc(N)n4] | < 5 µM |
| Cc1c(-c2ccnc(N)n2)sc2ccc(C(=O)N(CCCO)Cc3ccccn3)cc12 [Example 517, Cc1c(sc2ccc(cc12)C(═O)N(CCCO)Cc3ccccn3)-c4ccnc(N)n4] | < 5 µM |
| Cc1c(-c2ccnc(N)n2)sc2ccc(C(=O)N(C)CC(O)c3ccc(O)cc3)cc12 (centres unmarked) [Example 518, CN(CC(O)c1ccc(O)cc1)C(═O)c2ccc3sc(c(C)c3c2)-c4ccnc(N)n4] | < 5 µM |
| CCN(CC)CCN(Cc1ccccc1)C(=O)c1ccc2sc(-c3ccnc(N)n3)c(C)c2c1 [Example 551, CCN(CC)CCN(Cc1ccccc1)C(═O)c2ccc3sc(c(C)c3c2)-c4ccnc(N)n4] | < 5 µM |
| Cc1c(-c2ccnc(N)n2)sc2ccc(C(=O)N3CCCCC3CCO)cc12 (centres unmarked) [Example 497, Cc1c(sc2ccc(cc12)C(═O)N3CCCCC3CCO)-c4ccnc(N)n4] | > 5 µM |
| Cc1ccc(C)c(N2CCN(C(=O)c3ccc4sc(-c5ccnc(N)n5)c(C)c4c3)CC2)c1 [Example 539, Cc1ccc(C)c(c1)N2CCN(CC2)C(═O)c3ccc4sc(c(C)c4c3)-c5ccnc(N)n5] | > 5 µM |
| Cc1c(-c2ccnc(N)n2)sc2ccc(C(=O)NCc3ccc(F)c(Cl)c3)cc12 [Example 432, Cc1c(sc2ccc(cc12)C(═O)NCc3ccc(F)c(Cl)c3)-c4ccnc(N)n4] | < 5 µM |
| COc1ccc(CCNC(=O)c2ccc3sc(-c4ccnc(N)n4)c(C)c3c2)cc1 [Example 423, COc1ccc(CCNC(═O)c2ccc3sc(c(C)c3c2)-c4ccnc(N)n4)cc1] | < 5 µM |
| Cc1cccc(N2CCN(C(=O)c3ccc4sc(-c5ccnc(N)n5)c(C)c4c3)CC2)c1C [Example 534, Cc1cccc(N2CCN(CC2)C(═O)c3ccc4sc(c(C)c4c3)-c5ccnc(N)n5)c1C] | > 5 µM |
| Cc1c(-c2ccnc(N)n2)sc2ccc(C(=O)N3CCN(c4ccc(C(F)(F)F)cn4)CC3)cc12 [Example 568, Cc1c(sc2ccc(cc12)C(═O)N3CCN(CC3)c4ccc(cn4)C(F)(F)F)-c5ccnc(N)n5] | > 5 µM |
| Cc1c(-c2ccnc(N)n2)sc2ccc(C(=O)N3CCSC3)cc12 [Example 471, Cc1c(sc2ccc(cc12)C(═O)N3CCSC3)-c4ccnc(N)n4] | < 5 µM |
| Cc1ccc(CNC(=O)c2ccc3sc(-c4ccnc(N)n4)c(C)c3c2)cc1C [Example 398, Cc1ccc(CNC(═O)c2ccc3sc(c(C)c3c2)-c4ccnc(N)n4)cc1C] | > 5 µM |
| Cc1c(-c2ccnc(N)n2)sc2ccc(C(=O)N3CCCCC3CO)cc12 (centres unmarked) [Example 489, Cc1c(sc2ccc(cc12)C(═O)N3CCCCC3CO)-c4ccnc(N)n4] | < 5 µM |
| Cc1c(-c2ccnc(N)n2)sc2ccc(C(=O)NCCCO)cc12 [Example 343, Cc1c(sc2ccc(cc12)C(═O)NCCCO)-c3ccnc(N)n3] | < 5 µM |
| Cc1c(-c2ccnc(N)n2)sc2ccc(C(=O)NCc3cccnc3)cc12 [Example 364, Cc1c(sc2ccc(cc12)C(═O)NCc3cccnc3)-c4ccnc(N)n4] | < 5 µM |
| Cc1c(-c2ccnc(N)n2)sc2ccc(C(=O)N(Cc3ccccc3)C(C)C)cc12 [Example 505, CC(C)N(Cc1ccccc1)C(═O)c2ccc3sc(c(C)c3c2)-c4ccnc(N)n4] | < 5 µM |
| COc1ccccc1CCNC(=O)c1ccc2sc(-c3ccnc(N)n3)c(C)c2c1 [Example 424, COc1ccccc1CCNC(═O)c2ccc3sc(c(C)c3c2)-c4ccnc(N)n4] | < 5 µM |
| Cc1c(-c2ccnc(N)n2)sc2ccc(C(=O)NCCNC(=O)OC(C)(C)C)cc12 [Example 434, Cc1c(sc2ccc(cc12)C(═O)NCCNC(═O)OC(C)(C)C)-c3ccnc(N)n3] | < 5 µM |
| CCC(C)NC(=O)c1ccc2sc(-c3ccnc(N)n3)c(C)c2c1 (centres unmarked) [Example 341, CCC(C)NC(═O)c1ccc2sc(c(C)c2c1)-c3ccnc(N)n3] | < 5 µM |
| Cc1c(-c2ccnc(N)n2)sc2ccc(C(=O)NCCN3CCCC3)cc12 [Example 372, Cc1c(sc2ccc(cc12)C(═O)NCCN3CCCC3)-c4ccnc(N)n4] | < 5 µM |
| Cc1c(-c2ccnc(N)n2)sc2ccc(C(=O)N3CCSCC3)cc12 [Example 479, Cc1c(sc2ccc(cc12)C(═O)N3CCSCC3)-c4ccnc(N)n4] | < 5 µM |
| Cc1c(-c2ccnc(N)n2)sc2ccc(C(=O)NCCC(C)(C)C)cc12 [Example 358, Cc1c(sc2ccc(cc12)C(═O)NCCC(C)(C)C)-c3ccnc(N)n3] | < 5 µM |

| SMILES | IC50 |
| --- | --- |
| Cc1c(-c2ccnc(N)n2)sc2ccc(C(=O)N3CCc4ccccc4C3)cc12 [Example 498, Cc1c(sc2ccc(cc12)C(═O)N3CCc4ccccc4C3)-c5ccnc(N)n5] | < 5 µM |
| Cc1c(-c2ccnc(N)n2)sc2ccc(C(=O)NCC3CC3)cc12 [Example 340, Cc1c(sc2ccc(cc12)C(═O)NCC3CC3)-c4ccnc(N)n4] | < 5 µM |
| Cc1c(-c2ccnc(N)n2)sc2ccc(C(=O)N(C)CCC#N)cc12 [Example 465, CN(CCC#N)C(═O)c1ccc2sc(c(C)c2c1)-c3ccnc(N)n3] | < 5 µM |
| Cc1c(-c2ccnc(N)n2)sc2ccc(C(=O)N3CCCN(Cc4ccccc4)CC3)cc12 [Example 522, Cc1c(sc2ccc(cc12)C(═O)N3CCCN(CC3)Cc4ccccc4)-c5ccnc(N)n5] | < 5 µM |
| Cc1c(-c2ccnc(N)n2)sc2ccc(C(=O)NC3CCCc4ccccc43)cc12 (centres unmarked) [Example 417, Cc1c(sc2ccc(cc12)C(═O)NC3CCCc4ccccc34)-c5ccnc(N)n5] | < 5 µM |
| Cc1c(-c2ccnc(N)n2)sc2ccc(C(=O)NCCC#N)cc12 [Example 338, Cc1c(sc2ccc(cc12)C(═O)NCCC#N)-c3ccnc(N)n3] | < 5 µM |
| Cc1c(-c2ccnc(N)n2)sc2ccc(C(=O)N3CCCC3CO)cc12 (centres unmarked) [Example 475, Cc1c(sc2ccc(cc12)C(═O)N3CCCC3CO)-c4ccnc(N)n4] | < 5 µM |
| Cc1c(-c2ccnc(N)n2)sc2ccc(C(=O)NCCCn3ccnc3)cc12 [Example 385, Cc1c(sc2ccc(cc12)C(═O)NCCCn3ccnc3)-c4ccnc(N)n4] | < 5 µM |
| Cc1c(-c2ccnc(N)n2)sc2ccc(Oc3cccc(O)c3)cc12 [Example 82, 3-(2-(2-Aminopyrimidin-4-yl)-3-methylbenzo[b]thiophen-5-yloxy)phenol] | < 5 µM |
| COc1cc(CNC(=O)c2ccc3sc(-c4ccnc(N)n4)c(C)c3c2)cc(OC)c1 [Example 439, COc1cc(CNC(═O)c2ccc3sc(c(C)c3c2)-c4ccnc(N)n4)cc(OC)c1] | < 5 µM |
| CCCC(C)NC(=O)c1ccc2sc(-c3ccnc(N)n3)c(C)c2c1 (centres unmarked) [Example 347, CCCC(C)NC(═O)c1ccc2sc(c(C)c2c1)-c3ccnc(N)n3] | < 5 µM |
| Cc1c(-c2ccnc(N)n2)sc2ccc(C(=O)N(CCO)CCO)cc12 [Example 480, Cc1c(sc2ccc(cc12)C(═O)N(CCO)CCO)-c3ccnc(N)n3] | < 5 µM |
| Cc1c(-c2ccnc(N)n2)sc2ccc(C(=O)NCCc3cccc(F)c3)cc12 [Example 407, Cc1c(sc2ccc(cc12)C(═O)NCCc3cccc(F)c3)-c4ccnc(N)n4] | < 5 µM |
| Cc1c(-c2ccnc(N)n2)sc2ccc(C(=O)N3CCC[C@@H]3CO)cc12 [Example 476, Cc1c(sc2ccc(cc12)C(═O)N3CCC[C@@H]3CO)-c4ccnc(N)n4] | < 5 µM |
| Cc1ccc(C)c(CNC(=O)c2ccc3sc(-c4ccnc(N)n4)c(C)c3c2)c1 [Example 393, Cc1ccc(C)c(CNC(═O)c2ccc3sc(c(C)c3c2)-c4ccnc(N)n4)c1] | < 5 µM |
| Cc1ccc([C@H](C)NC(=O)c2ccc3sc(-c4ccnc(N)n4)c(C)c3c2)cc1 [Example 394, C[C@H](NC(═O)c1ccc2sc(c(C)c2c1)-c3ccnc(N)n3)c4ccc(C)cc4] | > 5 µM |
| Cc1c(-c2ccnc(N)n2)sc2ccc(C(=O)NCc3ccncc3)cc12 [Example 366, Cc1c(sc2ccc(cc12)C(═O)NCc3ccncc3)-c4ccnc(N)n4] | < 5 µM |
| Cc1c(-c2ccnc(N)n2)sc2ccc(C(=O)NCc3ccc(N(C)C)cc3)cc12 [Example 450, CN(C)c1ccc(CNC(═O)c2ccc3sc(c(C)c3c2)-c4ccnc(N)n4)cc1] | > 5 µM |
| Cc1c(-c2ccnc(N)n2)sc2ccc(C(=O)N(CCO)[C@H](C)c3ccccc3)cc12 [Example 516, C[C@@H](N(CCO)C(═O)c1ccc2sc(c(C)c2c1)-c3ccnc(N)n3)c4ccccc4] | < 5 µM |
| Cc1c(-c2ccnc(N)n2)sc2ccc(C(=O)NC(C)C)cc12 [Example 334, CC(C)NC(═O)c1ccc2sc(c(C)c2c1)-c3ccnc(N)n3] | > 5 µM |
| COc1cc(CN(C)C(=O)c2ccc3sc(-c4ccnc(N)n4)c(C)c3c2)cc(OC)c1OC [Example 555, COc1cc(CN(C)C(═O)c2ccc3sc(c(C)c3c2)-c4ccnc(N)n4)cc(OC)c1OC] | > 5 µM |
| CCN(CC)CCNC(=O)c1ccc2sc(-c3ccnc(N)n3)c(C)c2c1 [Example 374, CCN(CC)CCNC(═O)c1ccc2sc(c(C)c2c1)-c3ccnc(N)n3] | < 5 µM |
